According to patent publication US4461907A, “Amino-substituted flavans useful as anti-viral agents” (priority 1978, dated 1984):
Like-named read-outs stand apart in the source and are kept apart here.

Key:
[1] = test system: rhinovirus serotype 1B; assay: plaque reduction test; format: cell-based; details: Enterovirus
From the text: Plaque suppression is proportional to compound concentration.

[2] = test system: rhinoviruses; assay: activity in tests (novel compounds)
[3] = in vivo; details: mouse, po
[4] = test system: viral hepatitis; details: Lancet;2;1153 (1977); cited from earlier work
[5] = test system: rhinoviruses; assay: in vitro tests in culture
[6] = rhinovirus serotype 1B, plaque reduction test, read-out: ED50 (the source's name)

Row | SMILES | EC50 [1, 6] | other results
1 | Clc1ccccc1C1CCc2ccccc2O1 (stereo not drawn) [2'-chloro-, 2'-chloroflavan] | 0.112 µM | 
2 | Oc1ccccc1C1CCc2ccccc2O1 (stereo not drawn) [2'-hydroxyl-, 2'-hydroxyflavan] | 0.78 µM | 
3 | Cc1ccc2c(c1)CCC(c1ccc(Cl)c(Cl)c1)O2 (stereo not drawn) [3',4'-dichloro-6-methyl-, 3',4'-Dichloro-6-methylflavan] | 0.017 µM | activity in tests [2]: highest activity in tests
4 | Clc1ccc(C2CCc3ccccc3O2)cc1Cl (stereo not drawn) [3',4'-dichloro-, 3',4'-Dichloro-flavan] | 0.04 µM | 
5 | Clc1cccc(C2CCc3ccccc3O2)c1 (stereo not drawn) [3'-chloro-, 3'-chloroflavan] | 0.27 µM | 
6 | COc1cccc(C2CCc3ccccc3O2)c1 (stereo not drawn) [3'-methoxyl-, 3'-methoxyflavan] | 0.125 µM | 
7 | Cc1cccc(C2CCc3ccccc3O2)c1 (stereo not drawn) [3'-methyl-, 3'-methylflavan] | 0.29 µM | 
8 | FC(F)(F)c1cccc(C2CCc3ccccc3O2)c1 (stereo not drawn) [3'-trifluoromethyl, 3'-trifluoromethyl-flavan] | 1.4 µM | 
9 | N#Cc1ccc(C2CCc3cc(C#N)ccc3O2)cc1 (stereo not drawn) [4',6-cyano, 4',6-dicyanoflavan] | > 0.01 µM | activity in tests [2]: highest activity in tests
10 | Brc1ccc(C2CCc3cc(Br)ccc3O2)cc1 (stereo not drawn) [4',6-dibromo-, 4',6-dibromoflavan] | 0.008 µM | activity in tests [2]: highest activity in tests
11 | Clc1ccc(C2CCc3cc(Cl)ccc3O2)cc1 (stereo not drawn) [4',6-dichloro-, 4',6-Dichloroflavan] |  | concentration at 1 h ([3]; 30 mg/kg): 2 to 4 µM; concentration at 1 h ([3]; 100 mg/kg): 10 µM
12 | Ic1ccc(C2CCc3cc(I)ccc3O2)cc1 (stereo not drawn) [4',6-diiodo-, 4',6-diiodo] | 0.043 µM | 
13 | Cc1ccc(C2CCc3cc(C)ccc3O2)cc1 (stereo not drawn) [4',6-dimethyl-, 4',6-Dimethylflavan] | 0.042 µM | 
14 | CN(C)c1ccc(C2CCc3ccccc3O2)cc1 (stereo not drawn) [4'-N,N--dimethylamino-, 4'-(N,N-dimethylamino)flavan] | 0.265 µM | 
15 | CC(=O)Oc1ccc(C2CCc3ccccc3O2)cc1 (stereo not drawn) [4'-acetoxyl-] | 0.067 µM | 
16 | Nc1ccc(C2CCc3ccccc3O2)cc1 (stereo not drawn) [4'-amino-, 4'-aminoflavan] | 0.05 µM | 
17 | Brc1ccc(C2CCc3cc(I)ccc3O2)cc1 (stereo not drawn) [4'-bromo-6-iodo] | 0.076 µM | 
18 | Clc1ccc(C2CCc3cc(I)ccc3O2)cc1 (stereo not drawn) [4'-chloro-6-iodo-, 6-iodo-4'-chloroflavan] | 0.015 µM | activity in tests [2]: highest activity in tests

Row | SMILES | EC50 [1, 6] | other results
19 | Cc1ccc2c(c1)OC(c1ccc(Cl)cc1)CC2 (stereo not drawn) [4'-chloro-7-methyl-, 4'-chloro-7-methyl-flavan] | 0.0155 µM | activity in tests [2]: highest activity in tests
20 | Clc1ccc(C2CCc3ccccc3O2)cc1 (stereo not drawn) [4'-chloro-, 4'-chloroflavan] |  | EC50 ([1]; read-out: ED50): 0.04 µM
21 | Fc1ccc(C2CCc3cc(I)ccc3O2)cc1 (stereo not drawn) [4'-fluoro-6-iodo, 6-iodo-4'-fluoro] | 0.028 µM | 
22 | Oc1ccc(C2CCc3ccccc3O2)cc1 (stereo not drawn) [4'-hydroxy-, 4'-hydroxyflavan] | 0.06 µM | 
23 | COc1ccc(C2CCc3cc(Cl)ccc3O2)cc1 (stereo not drawn) [4'-methoxyl-6-chloro-, 6-Chloro-4'-methoxy-flavan] | 0.013 µM | activity in tests [2]: highest activity in tests
24 | COc1ccc(C2CCc3cc(C)ccc3O2)cc1 (stereo not drawn) [4'-methoxyl-6-methyl-, 4'-Methoxy-6-methyl-flavan] | 0.1 µM | 
25 | Cc1ccc(C2CCc3cc(Cl)ccc3O2)cc1 (stereo not drawn) [4'-methyl-6-chloro-, 6-Chloro-4'-methyl-flavan] | 0.0023 µM | activity in tests [2]: highest activity in tests
26 | Cc1ccc(C2CCc3ccc(Cl)cc3O2)cc1 (stereo not drawn) [4'-methyl-7-chloro-, 7-Chloro-4'-methyl-flavan] | 0.083 µM | 
27 | Clc1ccc(C2CCc3cc(Br)ccc3O2)cc1 (stereo not drawn) [6-bromo-4'-chloro-, 6-bromo-4'-chloro-flavan] | 0.005 µM | 
28 | Fc1ccc(C2CCc3cc(Br)ccc3O2)cc1 (stereo not drawn) [6-bromo-4'-fluoro] | 0.029 µM | 
29 | Fc1ccc(C2CCc3cc(Cl)ccc3O2)cc1 (stereo not drawn) [6-chloro-4'-fluoro, 6-chloro-4'-fluoro-flavan] | 0.016 µM | activity in tests [2]: highest activity in tests
30 | OC1Cc2ccccc2OC1c1ccccc1 (stereo not drawn) [-3-hydroxy flavan] |  | effect against viral hepatitis [4]: without success
31 | Brc1ccc2c(c1)CCC(c1ccccc1)O2 (stereo not drawn) [Example 6-bromo-, 6-bromo flavan] | 0.019 µM | 
32 | N#Cc1ccc2c(c1)CCC(c1ccccc1)O2 (stereo not drawn) [Example 6-cyano-, 6-cyano] | 0.038 µM | 
33 | Fc1ccc2c(c1)CCC(c1ccccc1)O2 (stereo not drawn) [Example 6-fluoro-, 6-fluoro flavan] | 0.02 µM | 
34 | Ic1ccc2c(c1)CCC(c1ccccc1)O2 (stereo not drawn) [Example 6-iodo-, 6-iodo] | 0.058 µM | 
35 | Cc1ccc2c(c1)CCC(c1ccccc1)O2 (stereo not drawn) [Example 6-methyl-, 6-methylflavan] | 0.15 µM | 
36 | c1ccc(C2CCc3ccccc3O2)cc1 (stereo not drawn) [flavan, Flavan] | 0.046 µM | activity against rhinoviruses [5]: quite good activity against rhinoviruses

Continued, in another order:

Row | EC50 [1, 6] | SMILES | other results
37 | 0.064 µM | Clc1ccc(C2CCc3ccccc3O2)c(Cl)c1 (stereo not drawn) [2',4'-dichloro-, 2',4'-Dichloro-flavan] | 
38 | 0.048 µM | Clc1cccc(Cl)c1C1CCc2ccccc2O1 (stereo not drawn) [2',6'-dichloro-, 2',6'-Dichloroflavan] | 
39 | 0.015 µM | Cc1ccccc1C1CCc2ccccc2O1 (stereo not drawn) [2'-methyl-, 2'-Methylflavan] | 
40 | 0.068 µM | Fc1ccc(C2CCc3cc(F)ccc3O2)cc1 (stereo not drawn) [4',6-difluoro-, 4'-6-difluoro] | 
41 | 0.048 µM | Clc1ccc(C2CCc3ccc(Cl)cc3O2)cc1 (stereo not drawn) [4',7-dichloro-, 4',7-Dichloroflavan] | 
42 | 0.021 µM | Clc1ccc2c(c1)CCC(c1ccc(Br)cc1)O2 (stereo not drawn) [4'-bromo-6-chloro, 4'-bromo-6-chloro-flavan] | 
43 | 0.013 µM | Fc1ccc2c(c1)CCC(c1ccc(Br)cc1)O2 (stereo not drawn) [4'-bromo-6-fluoro-, 6-fluoro-4'-bromoflavan] | activity in tests [2]: highest activity in tests
44 | 0.036 µM | Brc1ccc(C2CCc3ccccc3O2)cc1 (stereo not drawn) [4'-bromo-, 4'-Bromoflavan] | 
45 | 0.006 µM | N#Cc1ccc2c(c1)CCC(c1ccc(Cl)cc1)O2 (stereo not drawn) [4'-chloro-6-cyano, 6-cyano-4'-chloroflavan] | activity in tests [2]: highest activity in tests
46 | 0.052 µM | CCc1ccc2c(c1)CCC(c1ccc(Cl)cc1)O2 (stereo not drawn) [4'-chloro-6-ethyl-, 4'-chloro-6-ethyl-flavan] | 
47 | 0.015 µM | Fc1ccc2c(c1)CCC(c1ccc(Cl)cc1)O2 (stereo not drawn) [4'-chloro-6-fluoro-, 6-fluoro-4'-chloroflavan] | activity in tests [2]: highest activity in tests
48 | 0.0175 µM | Fc1ccc(C2CCc3ccccc3O2)cc1 (stereo not drawn) [4'-fluoro-, 4'-flouroflavan] | activity in tests [2]: highest activity in tests
49 | 0.07 µM | COc1ccc(C2CCc3ccccc3O2)cc1 (stereo not drawn) [4'-methoxyl-, 4'-methoxyflavan] | 
50 | 0.0125 µM | Cc1ccc(C2CCc3ccccc3O2)cc1 (stereo not drawn) [4'-methyl-, 4'-methylflavan] | activity in tests [2]: highest activity in tests
51 | 0.021 µM | Brc1ccc2c(c1)CCC(c1ccc(I)cc1)O2 (stereo not drawn) [6-bromo-4'-iodo-, 6-bromo-4'-iodo] | 
52 | 0.018 µM | Cc1ccc(C2CCc3cc(Br)ccc3O2)cc1 (stereo not drawn) [6-bromo-4'-methyl-, 6-bromo-4'-methylflavan] | 
53 | 0.036 µM | CC(C)c1ccc(C2CCc3cc(Cl)ccc3O2)cc1 (stereo not drawn) [6-chloro-4-(1-methylethyl), 6-chloro 4'-isopropylflavan] | 
54 | 0.05 µM | Clc1ccc2c(c1)CCC(c1ccccc1)O2 (stereo not drawn) [Example 6-chloro-, 6-chloroflavan] | 
55 | 0.0125 µM | COc1ccc2c(c1)CCC(c1ccccc1)O2 (stereo not drawn) [Example 6-methoxyl-, 6-methoxyflavan] | activity in tests [2]: highest activity in tests
56 | 0.07 µM | Clc1ccc2c(c1)OC(c1ccccc1)CC2 (stereo not drawn) [Example 7-chloro-, 7-Chloroflavan] | 
